Source: US12564574B2, “Pharmaceutical composition for preventing or treating parkinson's disease, comprising 2-(4-(1-hydroxypropane-2-yl)phenyl)isoindoline-1-one compound” (YEP BIO CO. LTD., priority 2020, dated 2026)

How the values were obtained:
[1] = system: PGC-1α protein in SH-SY5Y cells; assay: Immunoblot of PGC-1α protein after treating SH-SY5Y cell line with compounds; type: cell-based, human; conditions: SH-SY5Y cell line, 0.01, 0.1, 1, 10 μM, 48 hours
Experimental: To culture human neuroblasts SH-SY5Y cells (ATCC, Manassas, VA), 10% FBS (vol/vol, Welgene Gold Serum, cat #S 001-07) and DMEM (Welgene fresh media DMEM, cat #LM 001-05) including antibiotics were used, wherein the culture was performed in an incubator (Forma Direct Heat CO2 incubator, Thermo Scientific) at 37° C. in the presence of 5% carbon dioxide.
(§1) RIPA buffer was added to the SH-SY5Y cells and SN of C57L/6N mice, followed by homogenization with a homogenizer. Thereafter, the freezing and melting process was repeated three times, and quantification was performed using a BCA kit based on BSA to check the total amount of protein.
(§2) Lysates were identified by adding 2× SDS sample buffer, heating at 95° C. for 10 minutes to perform immunoblot, and then treating the desired protein with antibody.
(§3) In the immunoblot experiment, the darkness of the band was measured using the ImageJ (NIH, Bethesda, […], USA, http://rsb.info.nih.gov/ij/) program, and statistical analysis was performed using the darkness of the protein band in proportion to the loading control. The statistical analysis was performed using the GraphPad Prism version 7 (GraphPad Software) program. For the data, the unpaired two-tailed student's t-test was applied, wherein p<of 0.05 indicates statistical significance.
As shown in Example 3, an image of an immunoblot performed after treating the SH-SY5Y cell line with compounds (10 μM, 48 hours) is shown in FIG. 6.

[2] = system: PGC-1α protein in the SN of mice; assay: Immunoblot of PGC-1α protein in the substantia nigra (SN) of mice fed compound diet; type: in vivo; conditions: diet 0.5% w/w for 1 week
Experimental: as §1, §2, §3
In FIG. 7, an immunoblot is shown for protein derived from the SN of mice fed with Chow, YPD-02 (2-[4-(3-oxo-1H-isoindol-2-yl)phenyl]propanoic acid), or YPD-01 (2-(4-(1-hydroxypropan-2-yl)phenyl) isoindoline-1-one) diet (0.5% w/w) for 1 week (quantitative graph quantified with β-actin/data was expressed as mean±SEM/statistical significance was measured by applying the unpaired two-tailed student t-test. * p<0.05, ** p<0.01.).

[3] = system: PGC-1α and main target genes (NRF-1, Tfam); assay: RT-qPCR of PGC-1α and its target genes (NRF-1, Tfam) in Parkinson's disease model mice; type: in vivo; conditions: substantia nigra of AAV-PARIS injected mice, diet for 4 weeks
Text: (§4) To prepare Parkinson's disease model mice, AAV-PARIS was stereotaxically injected into the substantia nigra area. The mice were fed with Chow or YPD-01 (2-(4-(1-hydroxypropan-2-yl)phenyl) isoindoline-1-one) diet (0.5% w/w) for 4 weeks, and then the brain was collected and sectioned using a microtome. Dopaminergic neurons were visualized by carrying out a reaction in the mouse brain tissue sliced into 35 μm sections using TH antibody, a neuronal dopamine marker, then exposed to Vectastine ABC (Vector biolabs) and DAB (Sigma) solutions. Six […] were used in each experiment.
In the animal model experiment set up as in Example 5, whether the expression of PGC-1α and the main target genes (NRF-1, Tfam) of PGC-1α increases due to YPD-01 intake was measured by RT-qPCR method.
The midbrain of mice into which AAV-PARIS was stereotaxically injected and which were fed with Chow or YPD-01 diet for 4 weeks was collected, and RNA was extracted using the total RNA extraction kit (Intron Biotechnology). cDNA was synthesized using the cDNA synthesis kit (Enzynomics) and oligo dT from the extracted RNA. Using primers and SYBR green (Qiagen) reagents for the gene to be analyzed, gene expression in Rotor gene Q (Qiagen) was quantified via qPCR.

[4] = system: dopamine neurons in substantia nigra of AAV-PARIS Parkinson's disease model mice; assay: Death of dopamine neurons in AAV-PARIS Parkinson's disease model mice (TH immunohistochemistry and immunoblot); type: in vivo; conditions: AAV-PARIS injected mice, diet 0.5% w/w for 4 weeks
Text: as §4
100 μl of pentobarbital (10 mg/ml) was injected into the abdomen of 8-week-old mice for anesthetization, mouse pericranium was peeled off, and then the left brain (X: 1.2, Y: −3.2, Z: −4.5) and right brain (X: 1.2, Y: 3.2, Z: −4.5) regions were marked based on the bregma. The marked portion was drilled, and the virus was injected slowly (30 seconds per 0.2 μl) through a syringe. After injecting the virus into the left brain, followed by a 2-minute standby, the same procedure was performed on the other side. After the surgical suture, the mice were carefully monitored, and breeding was followed in the cage until the recovery. […]

[5] = system: Parkinson's disease model mice; assay: Pole test in AAV-PARIS Parkinson's disease model mice; type: in vivo; conditions: AAV-PARIS injected mice, YPD-01 diet 0.5% w/w
Text: as §4
In order to identify whether YPD-01 is effective in inhibiting the death of dopamine neurons and Parkinson's disease-like behavioral abnormality in the Parkinson's disease model, as shown in Example 5 above, a pole test, which is the most reliable behavioral experiment, was performed.
To investigate behavioral abnormality, Parkinson's disease model mice were transferred to a pole test cage to have the mice adapted for 3 minutes, and then the mouse tails were held and placed on the tip of a vertically erected pole. The time from the moment the mouse took off its hind foot from the tip of the pole until the mouse came down to the floor was measured.

PGC-1α promoter = PGC-1α promoter luciferase assay (compound screening) in SH-PGC-1α-Luc reporter cells; type: cell-based, human; conditions: SH-PGC-1α-Luc cells, comparison of 14 drugs
Experimental: In order to prepare lentiviruses for preparation of stable reporter SH-SY5Y cells (SH-PGC-1α-Luc), 1-kb pGL3-PGC-1α promoter-luciferase was cloned to pGreenFire (System Biosciences), and a lentivirus construct was first prepared (provided by Akyosi Fukamizu from University of Tsukuba, Japan).
HEK293T cells cultured in 15 cm dish were subjected to transfection with 32 μg of pGreenFire vector, 9 μg of VSVg envelope, 6.25 μg of Prev, and 12.5 μg of pMDL.
After 48 hours, viral supernatants were collected and concentrated using ultracentrifugation, and viral pellets were dissolved with PBS. SH-SY5Y cells were treated with concentrated virus and screened with puromycin (1 μg/ml) a day later.
SH-PGC-1α-Luc was dispensed in a white, flat-bottomed 96-well plate, where culture was performed to accommodate 10,000 cells in 100 μl of DMEM (10% FBS+penicillin/streptomycin (P/S)) per well, and the cells were stabilized in an incubator at 37° C. in the presence of 5% CO2 for 12 hours.
The next day, each drug was added to 50 μl of warmed DMEM to the final concentration of 20 μM, then 50 μl of DMEM was removed from the cell-containing plate, and 50 μl of drug-containing DMEM was added (final concentration of 10 μM). Cells were then exposed to the drug for 48 hours, and luciferase activity was measured using SteadyGlo reagent (Promega). […]

Compound: CC(C)OC(=O)C(C)c1ccc(N2Cc3ccccc3C2=O)cc1 (stereo not drawn) [YPD-03, isopropyl 2-(4-(1-oxoisoindolin-2-yl)phenyl) propanoate]
- amount of PGC-1α protein (immunoblot) [1]: increased the amount of PGC-1α protein in accordance with an increase in the drug concentration

Compound: CC(CO)c1ccc(N2Cc3ccccc3C2=O)cc1 (stereo not drawn) [YPD-01, 2-(4-(1-hydroxypropan-2-yl)phenyl) isoindoline-1-one]
- passage through the BBB [2]: successfully passed through BBB
- protein level of PGC-1α in the SN (immunoblot) ([2]; quantified with β-actin): increased the protein level of PGC-1α
- PARIS-induced suppression of expression of NRF-1 (RT-qPCR) [3]: significantly recovered
- PARIS-induced suppression of expression of PGC-1α (RT-qPCR) [3]: significantly recovered
- PARIS-induced suppression of expression of Tfam (RT-qPCR) [3]: significantly recovered
- death of dopamine neurons (TH immunohistochemistry) [4]: the death of dopamine neurons was meaningfully inhibited
- death of dopamine neurons (TH immunoblot in substantia nigra) ([4]; quantified with β-actin): the death of dopamine neurons by AAV-PARIS was inhibited
- amount of PGC-1α protein (immunoblot) [1]: increased the amount of PGC-1α protein regardless of the concentration
- symptoms of behavioral abnormality (time to come down from the top of the pole) [5]: disappeared
- activity on PGC-1α promoter among the 14 drugs (FIG. 5) (PGC-1α promoter): highest

Compound: CC(C(=O)O)c1ccc(N2Cc3ccccc3C2=O)cc1 (stereo not drawn) [YPD-02, 2-[4-(3-oxo-1H-isoindol-2-yl)phenyl]propanoic acid, reference compound]
- amount of PGC-1α protein (immunoblot) [1]: increased the amount of PGC-1α protein in accordance with an increase in the drug concentration
